Where two headings read alike, the source gives them in different places.

This is an account of results in patent US10398142B2, “Polycationic amphiphiles as antimicrobial agents” (priority 2013, dated 2019).

Test [1] has as its system S. aureus (MSSA, SH1000) biofilms. The experiment in a line: Minimum biofilm eradication concentration (MBEC), regrowth assay. The settings on record: for MBEC S. aureus: Table 2, pre-established biofilm, ± values varied between 50 and 100 μM for the six trials; for eradication of S. aureus biofilms (in words): at the concentrations tested. The class given is cell-based, Staphylococcus aureus. From the text:
(§1) A regrowth assay was used to establish the MBEC of a compound to evaluate the antibiofilm activity. See also H. Ceri, M. Olson, D. Morck, D. Storey, R. Read, A. Buret, B. Olson, Methods Enzymol. 2001, 337, 377.
(§2) Encouraged by the potency of the QACs against planktonic bacterial cells, the inventors then evaluated the efficacy of compound (12,2,12) against Staphylococcus aureus and Enterococcus faecalis biofilms. […] To both accurately evaluate the antibiofilm activity, a regrowth assay was utilized to establish the minimum biofilm eradication concentration (MBEC) of each compound.
(§3) Different biological assays were performed. For all biological assays, laboratory strains of methicillin-susceptible Staphylococcus aureus MSSA (SH1000), Enterococcus faecalis (OG1RF), Escherichia coli (MC4100), Pseudomonas aeruginosa (PAO1), community-acquired methicillin-resistant Staphylococcus aureus CA-MRSA (USA300-0114), and hospital-acquired methicillin-resistant Staphylococcus aureus HA-MRSA (ATCC 33591) were grown at 37° C. overnight from freezer stocks in 10 mL of the media indicated for each assay. All cultures, with the exception of E. faecalis, were grown with shaking at 250 rpm.
(§4) Minimum biofilm eradication concentration (MBEC) was also measured. To each well of a flat-bottomed 96-well plate (Corning 3370), 8 μL of overnight bacterial culture was brought to a volume of 200 μL with fresh media (BHI for S. aureus and MRSA, Todd Hewitt (TH) for E. faecalis). Plates were incubated statically for 24 hours at 37° C. to establish biofilms. After 24 hours, the wells were carefully emptied by inverting the plate and gently shaking. A pre-mixed solution of media and aqueous compound stock solution was added to each well and plates were incubated at 37° C. 16 hours after pre-established biofilms were treated with compound, the media from each well was removed, biofilms were washed three times with 200 μL PBS to remove planktonic cells, and biofilms were incubated overnight at 37° C. in 200 μL of fresh media to allow any viable cells to continue growing. The wells were then vigorously pipetted to resuspend the biofilm cells and the OD at 595 nm was measured using a plate reader (POLARstar Omega, BMG Labtech). Biofilms reaching a final OD of less than 0.1 were considered eradicated and the lowest concentration of antibiotic corresponded to the MBEC. Four replicates were completed for each concentration of compound as well as positive and negative controls.

In test [2] the test system is Escherichia coli (MC4100). Description: Minimum inhibitory concentration (MIC), broth microdilution. The settings on record: read-out: MIC E. coli. The class given is cell-based. As for the experimental part: (§5) The term “minimum inhibitory concentration (MIC)” means the lowest concentration of an antimicrobial agent that will inhibit the visible growth of a microorganism after overnight incubation. MIC values against bacteria, for example, the Gram-positive Staphylococcus aureus and Enterococcus faecalis and the Gram-negative Escherichia coli and Pseudomonas aeruginosa were determined by standard methods.
(§6) With nearly three-dozen amphiphiles varying in structure and cationic nature synthesized, minimum inhibitory concentration (MIC) values against the Gram-positive Staphylococcus aureus and Enterococcus faecalis and the Gram-negative Escherichia coli and Pseudomonas aeruginosa were determined by standard methods. […] The commercially available antibacterial agent benzalkonium chloride (benzyldimethyldodecylammonium chloride, Bn,12) was tested for comparison. The broth microdilution for determining MIC values was performed as previously reported.
(§7) Different biological assays were performed. […] All cultures, with the exception of E. faecalis, were grown with shaking at 250 rpm.
(§8) Minimum inhibitory concentration (MIC) values against bacteria were measured using standard method. Compounds were serially diluted two-fold from an aqueous stock solution to yield twelve test concentrations. Overnight S. aureus, E. faecalis, E. coli, P. aeruginosa, CA-MRSA, and HA-MRSA cultures diluted to ca. 10^6 cfu/mL in Mueller-Hinton media and 100 μL were inoculated into each well of a U-bottom 96-well plate (BD Biosciences, BD351177) containing 100 μL of compound solution. Plates were incubated statically at 37° C. for 72 hours upon which time wells were evaluated visually for bacterial growth. The MIC was determined as the lowest concentration of compound resulting in no bacterial growth visible to the naked eye, based on the majority of three independent experiments. Positive and negative aqueous and media controls were conducted for each trial.

The test system of test [3] is Enterococcus faecalis (OG1RF). Described as above. The format is cell-based. The note with it: read-out: MIC E. faecalis. As for the experimental part: as §5, §6, §7, §8
For test [4], the system named is Pseudomonas aeruginosa (PAO1). Described as above. The format is cell-based. As for the experimental part: as §5, §6, §7, §8
For test [5], the system named is Staphylococcus aureus MSSA (SH1000). The description is as above. The format is cell-based. The settings on record: read-out: MIC S. aureus. As for the experimental part:
as §5, §6, §7, §8

Another test deals with E. faecalis biofilms. The experiment in a line: Minimum biofilm eradication concentration (MBEC), regrowth assay. The format is cell-based, Enterococcus faecalis. The settings on record: for MBEC E. faecalis: Table 2, pre-established biofilm, ± values varied between 50 and 100 μM for the six trials; for eradication of E. faecalis biofilms (in words): at the concentrations tested.
Source text: as §1, §2, §3, §4

Setting [6] is: Table 1, read-out: MIC P. aeruginosa.
Setting [7] is: Table 3, read-out: MIC P. aeruginosa.

The MIC is the least concentration at which growth counts as inhibited. As for `C[N+](C)(C)CC[N+](C)(C)C` [1,2,1], the “MBEC S. aureus” value in test [1] was over 200 µM. The “eradication of S. aureus biofilms (in words)” value in test [1] is recorded as “unable to eradicate biofilms”. Besides, the MIC in test [2] (Table 1), in test [3] (Table 1), in test [4] (setting [6]) and in test [5] (Table 1) was over 500 µM in each case. Moreover, the “MBEC E. faecalis” value in the test with E. faecalis biofilms is over 200 µM. Moreover, the “eradication of E. faecalis biofilms (in words)” value in the test with E. faecalis biofilms is on record as “unable to eradicate biofilms”.

For the molecule `C[N+](C)(C)CCCCC[N+](C)(C)C` [1,5,1], in test [1], the “MBEC S. aureus” value is over 200 µM. In test [1], the “eradication of S. aureus biofilms (in words)” value was “unable to eradicate biofilms”. In addition, the MIC in test [2] (Table 1), in test [3] (Table 1), in test [4] (setting [6]) and in test [5] (Table 1) was over 500 µM each time. Further, the “MBEC E. faecalis” value in the test with E. faecalis biofilms is over 200 µM. Also, in the test on E. faecalis biofilms, the “eradication of E. faecalis biofilms (in words)” value is “unable to eradicate biofilms”.

Turning to `CCCCCCCCCC[N+](C)(C)CCN(C)CC[N+](C)(C)CCCCCCCCCC.[Br-].[Br-]` [10, 2, 0, 2, 10], the MIC stood at 8 µM in test [2] (Table 3), 8 µM in test [3] (Table 3), 63 µM in test [4] (setting [7]) and 2 µM in test [5] (Table 3).

In the case of `CCCCCCCCCC[N+](C)(C)CC[N+](C)(C)CC[N+](C)(C)CCCCCCCCCC.[Br-].[Br-].[I-]` [10, 2, 1, 2, 10], the MIC in test [2] (Table 3) was found to be 8 µM; in test [3] (Table 3) it was 8 µM; in test [4] (setting [7]) it was 63 µM; in test [5] (Table 3), 2 µM.

Take `C=CC[N+](C)(CC[N+](C)(C)CCCCCCCCCC)CC[N+](C)(C)CCCCCCCCCC.[Br-].[Br-].[Br-]` [10, 2, 3A, 2, 10]: the MIC in test [2] (Table 3) was found to be 2 µM; in test [3] (Table 3), 4 µM; in test [4] (setting [7]), 63 µM; in test [5] (Table 3), 2 µM.

Take `CCCCCCCCCC[N+](C)(C)CCCCC[N+](C)(C)CCCCCCCCCC.[Br-].[Br-]` [10, 5, 10]: the minimum inhibitory concentration (MIC) in test [2] (Table 3) was determined as 8 µM; in test [3] (Table 3), 4 µM; in test [4] (setting [7]), 63 µM; in test [5] (Table 3), 2 µM.

`CCCCCCCCCCC[N+](C)(C)CCN(C)CC[N+](C)(C)CCCCCCCCCCC.[Br-].[Br-]` [11, 2, 0, 2, 11]: the MIC in test [2] (Table 3) came out at 2 µM; in test [3] (Table 3), 2 µM; in test [4] (setting [7]), 8 µM; in test [5] (Table 3), 2 µM.

Regarding `CCCCCCCCCCC[N+](C)(C)CC[N+](C)(C)CC[N+](C)(C)CCCCCCCCCCC.[Br-].[Br-].[I-]` [11, 2, 1, 2, 11], the MIC in test [2] (Table 3) is listed as 4 µM; in test [3] (Table 3) it was 2 µM; in test [4] (setting [7]), 8 µM; in test [5] (Table 3), 2 µM.

Turning to `C=CC[N+](C)(CC[N+](C)(C)CCCCCCCCCCC)CC[N+](C)(C)CCCCCCCCCCC.[Br-].[Br-].[Br-]` [11, 2, 3A, 2, 11], the MIC in test [2] (Table 3) was 2 µM; in test [3] (Table 3) it was 2 µM; in test [4] (setting [7]) it was 16 µM; in test [5] (Table 3), 1 µM.

For `CCCCCCCCCCCC[N+](C)(C)CCCCCCCCCCCC.[Br-]` [12,12], the “MBEC S. aureus” value in test [1] was over 200 µM. The MIC is 8 µM in test [2] (Table 1), 1 µM in test [3] (Table 1), 32 µM in test [4] (setting [6]) and 1 µM in test [5] (Table 1). For the same molecule, the “MBEC E. faecalis” value in the test with E. faecalis biofilms came out at 200 µM.

For `CCCCCCCCCCCC[N+](C)(C)CCCCCCC[N+](C)(C)CCCCCCCCCCCC.[Br-].[Br-]` [12, 7, 12], the MIC is 2 µM in test [2] (Table 3), 1 µM in test [3] (Table 3), 8 µM in test [4] (setting [7]) and 1 µM in test [5] (Table 3).

`CCCCCCCCCCCCCC[N+](C)(C)CCN(C)CC[N+](C)(C)CCCCCCCCCCCCCC.[Br-].[Br-]` [14, 2, 0, 2, 14]: the MIC in test [2] (Table 3) turned out to be 4 µM; in test [3] (Table 3), 1 µM; in test [4] (setting [7]) it was 16 µM; in test [5] (Table 3), 2 µM.

Consider `CCCCCCCCCCCCCC[N+](C)(C)CC[N+](C)(C)CC[N+](C)(C)CCCCCCCCCCCCCC.[Br-].[Br-].[I-]` [14, 2, 1, 2, 14], for which the MIC in test [2] (Table 3) came to 2 µM; in test [3] (Table 3) it was 1 µM; in test [4] (setting [7]), 8 µM; in test [5] (Table 3), 1 µM.

Regarding `C=CC[N+](C)(CC[N+](C)(C)CCCCCCCCCCCCCC)CC[N+](C)(C)CCCCCCCCCCCCCC.[Br-].[Br-].[Br-]` [14, 2, 3A, 2, 14], the MIC stood at 2 µM in test [2] (Table 3), 2 µM in test [3] (Table 3), 8 µM in test [4] (setting [7]) and 2 µM in test [5] (Table 3).

Consider `CCCCCCCCCCCCCC[N+](C)(C)CCCCC[N+](C)(C)CCCCCCCCCCCCCC.[Br-].[Br-]` [14, 5, 14], for which the MIC is listed as 4 µM in test [2] (Table 3), 1 µM in test [3] (Table 3), 16 µM in test [4] (setting [7]) and 1 µM in test [5] (Table 3).

In the case of `CCCCCCCCCCCCCCCC[N+](C)(C)CCN(C)CC[N+](C)(C)CCCCCCCCCCCCCCCC.[Br-].[Br-]` [16, 2, 0, 2, 16], the MIC in test [2] (Table 3) was found to be 16 µM; in test [3] (Table 3), 2 µM; in test [4] (setting [7]), 32 µM; in test [5] (Table 3), 4 µM.

As for `C=CC[N+](C)(CC[N+](C)(C)CCCCCCCCCCCCCCCC)CC[N+](C)(C)CCCCCCCCCCCCCCCC.[Br-].[Br-].[Br-]` [16, 2, 3A, 2, 16], the MIC in test [2] (Table 3) is 8 µM; in test [3] (Table 3) it was 4 µM; in test [4] (setting [7]) it was 16 µM; in test [5] (Table 3), 4 µM.

For `CCCCCCCCCCCC[N+](C)(C)CCN(C)CCN(C)CCN(C)C.[Br-]` [N4-12,0,0, 0], the MIC in test [2] (Table 3) is recorded as 8 µM; in test [3] (Table 3), 8 µM; in test [4] (setting [7]), 32 µM; in test [5] (Table 3) it was 8 µM.

In the case of `CCCCCCCCCCCCCC[N+](C)(C)CCN(C)CCN(C)CCN(C)C.[Br-]` [N4-14,0,0, 0], the MIC in test [2] (Table 3) was 32 µM; in test [3] (Table 3), 16 µM; in test [4] (setting [7]), 125 µM; in test [5] (Table 3), 16 µM.

For `CCCCCCCCCCCCCC[N+](C)(C)CCN(C)CCN(C)CC[N+](C)(C)CCCCCCCCCCCC.[Br-].[Br-]` [N4-14,0,0, 12], the MIC was 2 µM in test [2] (Table 3), 1 µM in test [3] (Table 3), 8 µM in test [4] (setting [7]) and 1 µM in test [5] (Table 3).

For `CCCCCCCCCCCCCC[N+](C)(C)CCN(C)CCN(C)CC[N+](C)(C)CCCCCCCCCCCCCC.[Br-].[Br-]` [N4-14,0,0, 14], the minimal inhibitory concentration (MIC) in test [2] (Table 3) was 2 µM; in test [3] (Table 3), 1 µM; in test [4] (setting [7]), 16 µM; in test [5] (Table 3), 2 µM.

For `NCCCNCCCN` [Norspermidine, reference compound], the “MBEC S. aureus” value in test [1] is over 200 µM. For the same molecule, the MIC is over 500 µM in test [2] (Escherichia coli); over 500 µM in test [3] (Enterococcus faecalis); over 500 µM in test [4] (Pseudomonas aeruginosa, PAO1, read-out: MIC P. aeruginosa); over 500 µM in test [5] (Staphylococcus aureus, MSSA). The “MBEC E. faecalis” value with E. faecalis biofilms is over 200 µM.
